Assay results taken from PMC6585474, “In vitro and in vivo Human Metabolism of (S)-[^18F]Fluspidine – A Radioligand for Imaging σ1 Receptors With Positron Emission Tomography (PET)” (Frontiers in Pharmacology, 2019).
Read-outs that look alike come from different tables or passages of the source.

Legend:
[1] = RLM, NADPH, after 30 min; ref Wiese et al., 2016; cited from earlier work
[2] = parameters: method as in Wiese et al., 2016; conditions: mouse plasma, 30 min post injection; ref Wiese et al., 2016; cited from earlier work
[3] = parameters: method as in Wiese et al., 2016; conditions: mouse brain, 60 min post injection; ref Wiese et al., 2016; cited from earlier work
[4] = Time- and concentration-dependent microsomal transformation of (S)-[^18F]1 (HLM, NADPH, radio-HPLC); format: in vitro ADME, human; conditions: 37°C; for unchanged radioligand: after 30 min incubation; for time at which 50% of unchanged (S)-[^18F]1 could be detected: HLM
Procedure: Respective amounts of a solution of (S)-1 of 0.1 mg/mL [<1 μM (referring to estimated molar activity; no addition of carrier), 2, and 20 μM] in acetonitrile were put into test tubes and the solvent was evaporated using the DB-3D TECHNE Sample Concentrator (Biostep, Jahnsdorf, Germany) at room temperature under a stream of nitrogen. PBS and HLM (1 mg/mL) and ∼5 MBq (S)-[^18F]1 (molar activity: 17 GBq/μmol, at the start of incubations) in 100 μl PBS were added, mixed vigorously, and pre-incubated at 37°C for 3 min. Analogously pre-incubated NADPH (2 mM) was added and mixtures were shaken gently at 37°C using the BioShake iQ (QUANTIFOIL Instruments, Jena, Germany). After 0, 2, 5, 10, 15, 20, 30, 40, 50, and 60 min, samples of 20 μL were taken and added to 80 μL cold acetonitrile (-20°C), followed by vigorous shaking (30 s), cooling on ice (4 min), and centrifugation at 14,000 rpm (10 min). Supernatants (90 μL) were diluted with water (30 μL) and immediately analyzed by radio-HPLC (system II).
System II: Analyses of samples from microsomal incubations to determine time and concentration dependency of microsomal transformation were performed on a JASCO X-LC system (JASCO Labor- und Datentechnik) equipped with a UV/Vis detector UV-2070 (monitoring at 210 nm) and a radioactivity flow detector GABI Star (raytest Isotopenmessgeräte, Straubenhardt, Germany) including NaI detector (2 × 2″ pinhole, 16 mm × 30 mm). […] The isocratic solvent system consisted of water/acetonitrile 40:60 (v/v), containing NH4OAc (20 mM). Unchanged (S)-[^18F]1 eluted at a retention time of 4.1 min, whilst formed radiometabolites eluted at 0.6–2.2 min. The percentages of unchanged (S)-[^18F]1 were calculated from HPLC data as follows: Fraction of (S) - [^18F]1(%) = Peak area(S)-[18F]1/(Peak area(S)-[18F]1 + Peak arearadiometabolites) × 100%
In order to obtain basic information about the metabolic stability in vitro, the time course of the degradation of (S)-[^18F]1 was investigated in presence of different concentrations of (S)-1 [no-carrier-added (n.c.a., <1 μM) and carrier-added: 2 and 20 μM]. For that purpose, incubations were performed in PBS with HLM and NADPH at 37°C. At defined time points (until 60 min) samples were taken and added to cold acetonitrile to terminate the incubations. After centrifugation, the fractions of remaining (S)-[^18F]1 were determined by radio-HPLC.

[5] = Incubation of (S)-1 with HLM (NADPH, UDPGA) and detection of metabolites by LC-MS/MS; format: in vitro ADME, human; conditions: 37°C, 120 min, LC-MS/MS (MRM)
Procedure: In the following, the final concentrations are provided in brackets. For incubations of (S)-[^18F]1 together with (S)-1 under conditions for oxidation and glucuronidation, a solution of (S)-1 of 0.1 mg/mL (2 μM) in acetonitrile was put into test tubes and the solvent was evaporated using the DB-3D TECHNE Sample Concentrator (Biostep) at room temperature under a stream of nitrogen. HLM (1 mg/mL) and alamethicin (50 μg/mL, from methanolic solution) were mixed ([Fisher et al., 2000]), kept on ice for 15 min and added to the test tubes. PBS, ∼5 MBq (S)-[^18F]1 in 20 μL PBS, and MgCl2 (2 mM) were added, mixed vigorously and the mixture was pre-incubated at 37°C for 3 min. After addition of analogously pre-incubated NADPH (2 mM) and UDPGA (5 mM), the incubations were continued by gentle shaking at 37°C for 120 min using the BioShake iQ (QUANTIFOIL Instruments). After termination by adding 1.0 mL of cold acetonitrile (-20°C) and vigorous mixing for 30 s, the mixtures were stored at 4°C for 5 min. […]
For selective detection of metabolites, MRM transitions, which covered products of, e.g., debenzylation, defluorination, single, and multiple oxygenations as well as single and multiple glucuronidation of (S)-1 or its intermediate metabolites, were monitored. After incubation of (S)-1 with HLM in presence of NADPH a series of metabolites (M1–M10) could be detected (Figure 4 and Table 1).

[6] = human, in vivo
Procedure: After injection of 244.6-290.4 MBq (mean: 265.5 MBq) of (S)-[^18F]1 into 8 healthy controls arterial blood samples (∼16 mL) were withdrawn at 10, 20, and 30 min. […] After 90 or 120 min, urine (∼8 mL) was collected and stored on ice. Plasma was obtained by centrifugation of blood samples at 7,000 rpm (UNIVERSAL 320 R, Hettich, Germany) for 7 min. Protein precipitation and extraction with acetonitrile was conducted as follows. Method A: 10 × 1.6 mL cold acetonitrile (-35°C) were added to 10 × 400 μL plasma, shaken for 3 min, cooled at 4°C for 5 min and centrifuged at 7,000 rpm (Eppendorf Centrifuge 5424) for 5 min. Supernatants were collected and the precipitates were extracted with 1.6 mL acetonitrile each. The combined supernatants were concentrated at 70°C under a flow of nitrogen (Sample Concentrator DB-3D TECHNE) to provide residual volumes of 40–70 μL, which were reconditioned by adding water to obtain samples of 100 μL, which were immediately analyzed by radio-HPLC (system I). Method B: similar to method A, using 2 × 8 mL cold acetonitrile (-35°C) and 2 × 2 mL plasma. After centrifugation, the precipitates were extracted with 2 × 4 mL acetonitrile.
System I: Analyses were performed on a JASCO LC-2000 system (JASCO Labor- und Datentechnik, Gross-Umstadt, Germany) including a UV-2070 UV–VIS detector (monitoring at 210 nm) online with a GABI Star radioactivity flow detector (raytest Isotopenmessgeräte, Straubenhardt, Germany) with a NaI detector (2 × 2″ pinhole, 16 mm × 30 mm). Chromatographic separations were achieved using a Multospher 120 RP 18 AQ-5μ-column, 250 mm × 4.6 mm, 5 μm, including pre-column, 10 mm × 4 mm (CS-Chromatographie Service, Langerwehe, Germany). The solvent system consisted of eluent A: water/acetonitrile, 95:5 (v/v), containing NH4OAc (20 mM) and eluent B: water/acetonitrile, 20:80 (v/v), containing NH4OAc (20 mM). […]
Urine samples, taken after 90 or 120 min post injection were measured by radio-HPLC without further preparation.

[7] = in vivo, cited from earlier work
[8] = rhesus monkey, in vivo; cited from earlier work
[9] = system: β-glucuronidase (Helix pomatia type H-3); assay: β-Glucuronidase cleavage of microsomal-formed metabolite M12; format: in vitro ADME; conditions: acetate buffer pH 4.5–5.0, 37°C, 2 h; M5 the only product observed
Procedure: In order to investigate the cleavage of formed glucuronides (see section “β-Glucuronidase Cleavage of Microsomal-Formed Metabolite M12”), microsomal incubation of (S)-1 was performed in quadruplicate with higher amounts of the substrate and the reagents as follows (final concentrations in brackets): (S)-1 (200 μM), HLM (2 mg/mL), NADPH (4 mM), MgCl2 (5 mM), alamethicin (0.1 mg/mL), UDPGA (10 mM). After addition of acetonitrile, resulting mixtures were combined and further processing was proceeded as described above. The obtained sample was separated chromatographically using the HPLC system I (Section “Radio-HPLC”) with UV monitoring at 210 nm. […]
To 10 μL of a solution of metabolite M12 (Section “Incubation of (S)-[^18F]1 and Non-radioactive References for Identification of in vitro Metabolites and Radiometabolites”), 32 μL acetate buffer (NaOAc/AcOH, 100 mM, pH 4.5–5.0), and 8 μL β-glucuronidase from Helix pomatia Type H-3 (aqueous solution, ≥90,000 units/mL, final: ≥14,400 units/mL) were added. […] After centrifugation at 14,000 rpm (Eppendorf Centrifuge 5424) for 15 min, 40 μL of the supernatant was diluted with 60 μL of water and analyzed by LC-MS/MS monitoring the MRM transitions m/z 518.2/342.2 (as for glucuronides of mono-oxygenated metabolites, e.g., M12) and 342.2/91.1 (as for mono-oxygenated metabolites, e.g., M5).

[10] = HLM 1 mg/mL, PBS, n.c.a. (<1 μM)

SMILES: FCCC1OC2(CCN(Cc3ccccc3)CC2)c2ccccc21 (racemic) [rac-1, racemic fluspidine]
- stability (intact compound) [1]: ~13%

SMILES: [17F]CCC1OC2(CCN(Cc3ccccc3)CC2)c2ccccc21 (racemic) [rac-[^18F]1, racemic [^18F]fluspidine]
- fraction of unchanged rac-[^18F]1 in plasma [2]: 89 ± 3%
- unchanged radioligand in brain [3]: 98%

SMILES: FCC[C@@H]1OC2(CCN(Cc3ccccc3)CC2)c2ccccc21 [(S)-1, 1′ -benzyl-3-(2-fluoroethyl)-3H-spiro[2-benzofuran-1,4′ -piperidine]]
- unchanged radioligand [4, 10]: 14%
- defluorination [5]: not observed

SMILES: [18F]CC[C@@H]1OC2(CCN(Cc3ccccc3)CC2)c2ccccc21 [(S)-[^18F]1, (S)-[^18F]fluspidine]
- unchanged radioligand [4, 10]: 14%
- unchanged (S)-[^18F]1 ([4]; HLM 1 mg/mL, PBS, n.c.a. (<1 μM), after 60 min): 3%
- time at which 50% of unchanged (S)-[^18F]1 could be detected ([4]; 2 μM added (S)-1): 10 min
- time at which 50% of unchanged (S)-[^18F]1 could be detected ([4]; 20 μM added (S)-1): 17 min
- time at which 50% of unchanged (S)-[^18F]1 could be detected ([4]; n.c.a. (<1 μM)): 10 min
- Fraction of (S)-[^18F]1 of the total activity in urine [6]: 0.0–7.9%
- Fraction of (S)-[^18F]1 in urine ([6]; 90 min): 2.6%
- Fraction of (S)-[^18F]1 in urine ([6]; 120 min): 2.5%
- radioligand remained unchanged in plasma ([7]; 16 min): 48%
- radioligand remained unchanged in plasma ([7]; 0.5 h): 37%
- fraction of the total activity in plasma [8]: 50%

SMILES: O=C(O)[C@H]1OC(OC(CF)[C@@H]2OC3(CCN(Cc4ccccc4)CC3)c3ccccc32)[C@H](O)[C@@H](O)[C@@H]1O (some centres unmarked) [M12]
- cleavage by β-glucuronidase [9]: cleaved completely
